Where a SMILES comes first, the peptide text is derived from it.
What was measured:
[1] = target: T1, Dickkopf WNT-signaling pathway inhibitor 1 (Rattus norvegicus, UniProt A6I0Z0); assay: Inhibition of biotin-labeled rat recombinant DKK1 assessed as reduction in DKK1 interaction with LRP-6/Fc incubated overnight by chemiluminescence based Alpha-screen assay
T1 sequence (A6I0Z0 whole entry): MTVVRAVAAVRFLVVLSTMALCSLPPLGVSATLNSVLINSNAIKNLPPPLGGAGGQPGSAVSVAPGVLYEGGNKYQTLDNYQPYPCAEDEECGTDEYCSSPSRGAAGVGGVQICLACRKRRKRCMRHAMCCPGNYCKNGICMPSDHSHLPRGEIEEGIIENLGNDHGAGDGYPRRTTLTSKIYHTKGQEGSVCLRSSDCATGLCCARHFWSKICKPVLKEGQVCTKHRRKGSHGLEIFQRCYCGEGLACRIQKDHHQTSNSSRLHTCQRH

[2] = target: T2, Dickkopf-related protein 1 (Homo sapiens, UniProt O94907); assay: Inhibition of biotin-labeled human recombinant DKK1 assessed as reduction in DKK1 interaction with LRP-6/Fc incubated overnight by chemiluminescence based Alpha-screen assay
T2 sequence (O94907 whole entry): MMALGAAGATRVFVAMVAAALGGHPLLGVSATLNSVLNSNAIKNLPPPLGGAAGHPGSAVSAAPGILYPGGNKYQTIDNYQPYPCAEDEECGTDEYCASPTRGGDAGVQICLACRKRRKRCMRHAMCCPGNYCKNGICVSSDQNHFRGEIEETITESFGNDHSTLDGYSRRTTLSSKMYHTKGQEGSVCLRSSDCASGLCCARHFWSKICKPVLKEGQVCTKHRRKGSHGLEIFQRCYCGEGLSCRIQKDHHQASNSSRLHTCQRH

SMILES | IC50 [1] [nM] | IC50 [2] [nM]
CSCC[C@H](NC(=O)[C@H](Cc1ccccc1)NC(=O)[C@H](CCC(=O)O)NC(=O)[C@H](Cc1ccc(O)cc1)NC(=O)[C@H](CO)NC(=O)[C@@H]1CCCN1C(=O)[C@@H](N)CS)C(=O)N[C@@H](CS)C(=O)N[C@@H](C)C(=O)N[C@@H](CC(=O)O)C(=O)N[C@@H](CCCCN)C(=O)N[C@@H](CCSC)C(=O)N[C@@H](CS)C(=O)N[C@@H](Cc1ccccc1)C(=O)N1CCC[C@H]1C(=O)N[C@@H](CC(C)C)C(=O)N[C@@H](CC(=O)O)C(=O)N[C@@H](Cc1ccccc1)C(=O)N[C@@H](CC(C)C)C(=O)N[C@@H](CS)C(=O)N[C@@H](CC(=O)O)C(=O)NCC(=O)N[C@@H](CCC(=O)O)C(=O)N[C@@H](CC(N)=O)C(=O)N[C@@H](CC(=O)O)C(=O)N[C@@H](CS)C(=O)N[C@@H](CCC(=O)O)C(=O)N[C@@H](CC(=O)O)C(=O)NCC(=O)N[C@@H](CO)C(=O)N[C@@H](CC(=O)O)C(=O)N[C@@H](CCC(=O)O)C(=O)N[C@@H](CC(=O)O)C(=O)N[C@@H](Cc1ccc(O)cc1)C(=O)N[C@@H](CS)C(=O)N1CCC[C@H]1C(=O)N[C@@H](CO)C(=O)N[C@@H](CCCNC(=N)N)C(=O)N[C@H](C(=O)O)[C@@H](C)O (H-CPSYEFMCADKMCFPLDFLCDGENDCEDGSDEDYCPSRT-OH) | ≤ 1 | ≤ 1
CSCC[C@H](NC(=O)[C@@H]1CCCN1C(=O)[C@H](Cc1ccc(O)cc1)NC(=O)[C@H](CS)NC(=O)[C@H](Cc1cnc[nH]1)NC(=O)[C@H](CC(N)=O)NC(=O)[C@H](Cc1cnc[nH]1)NC(=O)[C@H](CCCCN)NC(=O)[C@H](CCCNC(=N)N)NC(=O)[C@H](CS)NC(=O)[C@H](CCCCN)NC(=O)[C@H](Cc1ccccc1)NC(=O)[C@H](Cc1ccc(O)cc1)NC(=O)[C@H](CO)NC(=O)[C@H](C)NC(=O)[C@@H]1CCCN1C(=O)[C@@H](N)CS)C(=O)N[C@@H](CCC(=O)O)C(=O)N[C@@H](Cc1c[nH]c2ccccc12)C(=O)N[C@@H](CCCNC(=N)N)C(=O)N[C@@H](CS)C(=O)N[C@@H](CC(=O)O)C(=O)NCC(=O)N[C@@H](Cc1ccccc1)C(=O)N[C@@H](CCC(N)=O)C(=O)N[C@@H](CC(=O)O)C(=O)N[C@@H](CS)C(=O)N[C@@H](CCC(=O)O)C(=O)N[C@@H](CC(=O)O)C(=O)NCC(=O)N[C@@H](CO)C(=O)N[C@@H](CC(=O)O)C(=O)N[C@@H](CCC(=O)O)C(=O)N[C@@H](CCC(N)=O)C(=O)N[C@@H](C)C(=O)N[C@@H](CS)C(=O)N1CCC[C@H]1C(=O)N[C@@H](Cc1ccc(O)cc1)C(=O)N[C@@H](CCCNC(=N)N)C(=O)N[C@H](C(=O)O)[C@@H](C)O (H-CPASYFKCRKHNHCYPMEWRCDGFQDCEDGSDEQACPYRT-OH) | ≤ 1 | ≤ 1
CSCC[C@H](NC(=O)[C@@H]1CCCN1C(=O)[C@H](Cc1ccc(O)cc1)NC(=O)[C@H](CS)NC(=O)[C@H](CO)NC(=O)[C@H](CC(N)=O)NC(=O)[C@H](CC(N)=O)NC(=O)[C@H](CC(N)=O)NC(=O)[C@H](CCCNC(=N)N)NC(=O)[C@H](CS)NC(=O)[C@H](CCC(N)=O)NC(=O)[C@H](Cc1ccccc1)NC(=O)[C@H](Cc1ccc(O)cc1)NC(=O)[C@H](CO)NC(=O)[C@H](C)NC(=O)[C@@H]1CCCN1C(=O)[C@@H](N)CS)C(=O)N[C@@H](CCC(=O)O)C(=O)N[C@@H](Cc1c[nH]c2ccccc12)C(=O)N[C@@H](CCCNC(=N)N)C(=O)N[C@@H](CS)C(=O)N[C@@H](CC(=O)O)C(=O)NCC(=O)N[C@@H](Cc1ccccc1)C(=O)N[C@@H](CCC(=O)O)C(=O)N[C@@H](CC(=O)O)C(=O)N[C@@H](CS)C(=O)N[C@@H](CCC(=O)O)C(=O)N[C@@H](CC(=O)O)C(=O)NCC(=O)N[C@@H](CO)C(=O)N[C@@H](CC(=O)O)C(=O)N[C@@H](CCC(=O)O)C(=O)N[C@@H](CCCNC(=N)N)C(=O)NCC(=O)N[C@@H](CS)C(=O)N1CCC[C@H]1C(=O)N[C@@H](Cc1ccc(O)cc1)C(=O)N[C@@H](CCCNC(=N)N)C(=O)N[C@H](C(=O)O)[C@@H](C)O (H-CPASYFQCRNNNSCYPMEWRCDGFEDCEDGSDERGCPYRT-OH) | ≤ 1 | ≤ 1
CSCC[C@H](NC(=O)[C@@H]1CCCN1C(=O)[C@H](Cc1ccc(O)cc1)NC(=O)[C@H](CS)NC(=O)[C@H](Cc1cnc[nH]1)NC(=O)[C@H](CC(N)=O)NC(=O)[C@H](Cc1cnc[nH]1)NC(=O)[C@H](Cc1ccc(O)cc1)NC(=O)[C@H](CCCNC(=N)N)NC(=O)[C@H](CS)NC(=O)[C@H](CCC(N)=O)NC(=O)[C@H](Cc1ccccc1)NC(=O)[C@H](Cc1ccc(O)cc1)NC(=O)[C@H](CO)NC(=O)[C@@H](NC(=O)[C@@H]1CCCN1C(=O)[C@@H](N)CS)C(C)C)C(=O)N[C@@H](CCC(=O)O)C(=O)N[C@@H](Cc1c[nH]c2ccccc12)C(=O)N[C@@H](CCCNC(=N)N)C(=O)N[C@@H](CS)C(=O)N[C@@H](CC(=O)O)C(=O)NCC(=O)N[C@@H](Cc1ccccc1)C(=O)N1CCC[C@H]1C(=O)N[C@@H](CC(=O)O)C(=O)N[C@@H](CS)C(=O)N[C@@H](CCC(=O)O)C(=O)N[C@@H](CC(=O)O)C(=O)N[C@@H](C)C(=O)N[C@@H](CO)C(=O)N[C@@H](CC(=O)O)C(=O)N[C@@H](CCC(=O)O)C(=O)N[C@@H](CCC(=O)O)C(=O)NCC(=O)N[C@@H](CS)C(=O)N1CCC[C@H]1C(=O)N[C@@H](Cc1ccc(O)cc1)C(=O)N[C@@H](CCCNC(=N)N)C(=O)N[C@H](C(=O)O)[C@@H](C)O (H-CPVSYFQCRYHNHCYPMEWRCDGFPDCEDASDEEGCPYRT-OH) | ≤ 1 | ≤ 1

The next lines start with the values.

IC50 [1] [nM] | IC50 [2] [nM] | SMILES
≤ 1 | ≤ 1 | CSCC[C@H](NC(=O)[C@@H]1CCCN1C(=O)[C@H](Cc1ccc(O)cc1)NC(=O)[C@H](CS)NC(=O)[C@H](Cc1cnc[nH]1)NC(=O)[C@H](CC(N)=O)NC(=O)[C@H](CC(C)C)NC(=O)[C@H](Cc1cnc[nH]1)NC(=O)[C@H](CCCNC(=N)N)NC(=O)[C@H](CS)NC(=O)[C@H](CCCNC(=N)N)NC(=O)[C@H](Cc1ccccc1)NC(=O)[C@H](Cc1ccc(O)cc1)NC(=O)[C@H](CO)NC(=O)[C@@H](NC(=O)[C@@H]1CCCN1C(=O)[C@@H](N)CS)C(C)C)C(=O)N[C@@H](CCC(=O)O)C(=O)N[C@@H](Cc1c[nH]c2ccccc12)C(=O)N[C@@H](CCCNC(=N)N)C(=O)N[C@@H](CS)C(=O)N[C@@H](CC(=O)O)C(=O)NCC(=O)N[C@@H](Cc1ccccc1)C(=O)N[C@@H](CC(C)C)C(=O)N[C@@H](CC(=O)O)C(=O)N[C@@H](CS)C(=O)N[C@H](C(=O)N[C@@H](CC(=O)O)C(=O)NCC(=O)N[C@@H](CO)C(=O)N[C@@H](CC(=O)O)C(=O)N[C@@H](CCC(=O)O)C(=O)N[C@@H](CCC(=O)O)C(=O)NCC(=O)N[C@@H](CS)C(=O)N1CCC[C@H]1C(=O)N[C@@H](Cc1ccc(O)cc1)C(=O)N[C@@H](CCCNC(=N)N)C(=O)N[C@H](C(=O)O)[C@@H](C)O)C(C)C (H-CPVSYFRCRHLNHCYPMEWRCDGFLDCVDGSDEEGCPYRT-OH)
≤ 1 | ≤ 1 | CC[C@H](C)[C@H](NC(=O)[C@H](CC(N)=O)NC(=O)CNC(=O)[C@H](CS)NC(=O)[C@H](CCC(N)=O)NC(=O)[C@H](Cc1ccccc1)NC(=O)[C@H](Cc1ccc(O)cc1)NC(=O)[C@H](CO)NC(=O)[C@H](C)NC(=O)[C@@H]1CCCN1C(=O)[C@@H](N)CS)C(=O)N[C@@H](CC(N)=O)C(=O)N[C@@H](Cc1cnc[nH]1)C(=O)N[C@@H](CS)C(=O)N[C@@H](Cc1ccc(O)cc1)C(=O)N1CCC[C@H]1C(=O)N[C@H](C(=O)N[C@@H](CCC(=O)O)C(=O)N[C@@H](Cc1c[nH]c2ccccc12)C(=O)N[C@@H](CCCNC(=N)N)C(=O)N[C@@H](CS)C(=O)N[C@@H](CC(=O)O)C(=O)NCC(=O)N[C@@H](Cc1ccccc1)C(=O)N[C@@H](CCC(N)=O)C(=O)N[C@@H](CC(=O)O)C(=O)N[C@@H](CS)C(=O)N[C@@H](CC(=O)O)C(=O)N[C@@H](CC(=O)O)C(=O)NCC(=O)N[C@@H](CO)C(=O)N[C@@H](CC(=O)O)C(=O)N[C@@H](CCC(=O)O)C(=O)N[C@@H](Cc1ccc(O)cc1)C(=O)N[C@H](C(=O)N[C@@H](CS)C(=O)N1CCC[C@H]1C(=O)N[C@@H](Cc1ccc(O)cc1)C(=O)N[C@@H](CCCNC(=N)N)C(=O)N[C@H](C(=O)O)[C@@H](C)O)C(C)C)C(C)C (H-CPASYFQCGNINHCYPVEWRCDGFQDCDDGSDEYVCPYRT-OH)
≤ 1 | ≤ 1 | CC[C@H](C)[C@H](NC(=O)[C@H](CCCCN)NC(=O)[C@H](CC(=O)O)NC(=O)[C@@H]1CCCN1C(=O)[C@H](CS)NC(=O)[C@H](CCSC)NC(=O)[C@H](Cc1ccccc1)NC(=O)[C@H](CCC(=O)O)NC(=O)[C@H](CC(N)=O)NC(=O)[C@H](CO)NC(=O)[C@@H]1CCCN1C(=O)[C@@H](N)CS)C(=O)N[C@@H](CS)C(=O)N[C@@H](Cc1ccccc1)C(=O)N1CCC[C@H]1C(=O)N[C@@H](CC(C)C)C(=O)N[C@@H](CO)C(=O)N[C@@H](Cc1ccccc1)C(=O)N[C@@H](CC(C)C)C(=O)N[C@@H](CS)C(=O)N[C@@H](CC(=O)O)C(=O)NCC(=O)N[C@@H](CCC(=O)O)C(=O)N[C@@H](CC(N)=O)C(=O)N[C@@H](CC(=O)O)C(=O)N[C@@H](CS)C(=O)N[C@@H](CCC(=O)O)C(=O)N[C@@H](CC(=O)O)C(=O)NCC(=O)N[C@@H](CO)C(=O)N[C@@H](CC(=O)O)C(=O)N[C@@H](CCC(=O)O)C(=O)N[C@@H](CC(=O)O)C(=O)N[C@@H](Cc1ccc(O)cc1)C(=O)N[C@@H](CS)C(=O)N1CCC[C@H]1C(=O)N[C@@H](CO)C(=O)N[C@@H](CCCNC(=N)N)C(=O)N[C@H](C(=O)O)[C@@H](C)O (H-CPSNEFMCPDKICFPLSFLCDGENDCEDGSDEDYCPSRT-OH)

Source: ChEMBL document CHEMBL4417633, “Inhibitory polypeptides specific to WNT inhibitors” (2017)
